Reference: article PMC10065791 (eLife, 2023)

Legend:
I84V mutant protease = target: T1, I84V mutant protease (Human immunodeficiency virus type 1 group M subtype B, UniProt P12497, I572V/Q495K); set-up: method as in Lockbaum et al. (ACS Infect Dis. 2019 Feb 8; 5 (2): 316–325); settings: I84V drug-resistant protease variant; previously reported; ref Lockbaum et al. (ACS Infect Dis. 2019 Feb 8; 5 (2): 316–325); cited from earlier work
T1 construct: the gene encoding the desired HIV-1 protease was subcloned into the heat-inducible pXC35 expression vector; made in house

[1] = target: T2, I50V/A71V mutant protease (Human immunodeficiency virus type 1 group M subtype B, UniProt P12497, A559V/I538V/Q495K); set-up: method as in Lockbaum et al. (ACS Infect Dis. 2019 Feb 8; 5 (2): 316–325); settings: I50V/A71V drug-resistant protease variant; previously reported; ref Lockbaum et al. (ACS Infect Dis. 2019 Feb 8; 5 (2): 316–325); cited from earlier work
T2 construct: the gene encoding the desired HIV-1 protease was subcloned into the heat-inducible pXC35 expression vector; made in house

[2] = system: mixture of 26 isogenic NL4-3 protease mutant viruses; assay: Selection for resistance in CEMx174 culture with escalating inhibitor, start mixture of 26 isogenic single mutants, Primer ID deep sequencing; format: cell-based, HIV-1
Description: . The selection experiments were performed under two separate starting conditions: first when the starting virus was generated from the NL4-3 clone (this clone closely approximates the clade B consensus for the protease amino acid sequence and will be referred to as ‘wild type’), then again when the starting virus was a mixture of 26 isogenic viruses each with a single mutation associated with drug resistance in the NL4-3 background. […] The initial inhibitor concentration started at low nanomolar concentrations and increased by a factor of 1.5 with each subsequent viral passage (the inhibitor concentration was increased only after the virus spread efficiently through the culture). […] For technical reasons, only five of the selections starting with the mixture of mutants reached an inhibitor concentration as high as 400 nM and are reported here (Figure 2—figure supplement 3). […]
CEMx174 cells were maintained in RPMI 1640 medium with 10% fetal calf serum and penicillin-streptomycin. […] Cell phenotypes were monitored for their ability to generate virus after transfection (293Ts), support viral replication (CEMx174), or report viral infection (TZM-bl). […]

wild-type NL4-3 protease = target: T3, wild-type NL4-3 protease (Human immunodeficiency virus type 1 group M subtype B, UniProt P12497, Q495K); set-up: method as in Lockbaum et al. (ACS Infect Dis. 2019 Feb 8; 5 (2): 316–325); settings: previously reported, ref Lockbaum et al. (ACS Infect Dis. 2019 Feb 8, 5 (2): 316–325), read-out: Ki WT; cited from earlier work
T3 construct: the gene encoding the desired HIV-1 protease was subcloned into the heat-inducible pXC35 expression vector; made in house

SMILES	Ki (I84V mutant protease)	Ki [1]	Abundance of variant at the last time point ([2]; variant 13V/16E/32I/33F/45I/46I/54L/71V/76V/82F/84V, passage 53, [PI] 5000 nM)	Ki (wild-type NL4-3 protease)	Abundance of variant at the last time point ([2]; variant 10F/46I/50V/63P/85V, passage 58, [PI] 400 nM)
CCC(CC)CN(C[C@@H](O)[C@H](Cc1ccccc1)NC(=O)O[C@H]1CO[C@H]2OCC[C@H]21)S(=O)(=O)c1ccc(N)cc1 [UMASS-6]	0.0128 ± 0.0031 nM	0.1 ± 0.0099 nM	62.8%	< 0.005 nM	–
CCC(CC)CN(C[C@@H](O)[C@H](Cc1ccccc1)NC(=O)O[C@H]1CO[C@H]2OCC[C@H]21)S(=O)(=O)c1ccc(OC)cc1 [UMASS-7]	–	–	–	–	21.0%
